Data taken from ChEMBL document CHEMBL1201862, “PubChem BioAssay data set” (2004).
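Five compound concentrations were applied to cells in 96-well plates for 48 hours; endpoints were derived by simple linear interpolation of the resulting dose-response curve. Here, GI50 denotes the concentration required for 50% inhibition of growth.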 The source made the active and inactive calls. Cut-off read from the data, not from the text of the source: active = GI50 up to about 1.1 µM and inactive = higher.

Legend:
Experiment in all cases: NCI anticancer screen, dose series, 48 h
[1] = system: 786-0
[2] = system: A498
[3] = system: A549
[4] = system: ACHN
[5] = system: BT-549
[6] = system: CAKI-1
[7] = system: CCRF-CEM
[8] = system: COLO 205
[9] = system: DU-145
[10] = system: EKVX
[11] = system: HCC 2998
[12] = system: HCT-116
[13] = system: HCT-15
[14] = system: HOP-62
[15] = system: HOP-92
[16] = system: HT-29
[17] = system: IGROV-1
[18] = system: K562
[19] = system: KM12
[20] = system: LOX IMVI
[21] = system: M14
[22] = system: MCF7
[23] = system: MDA-MB-231
[24] = system: MDA-MB-435
[25] = system: MDA-N
[26] = system: MOLT-4
[27] = system: NCI-H226
[28] = system: NCI-H23
[29] = system: NCI-H460
[30] = system: NCI/ADR-RES
[31] = system: OVCAR-3
[32] = system: OVCAR-4
[33] = system: OVCAR-5
[34] = system: OVCAR-8
[35] = system: PC-3
[36] = system: RPMI-8226
[37] = system: RXF 393
[38] = system: SF-295
[39] = system: SF-539
[40] = system: SK-MEL-28
[41] = system: SK-MEL-2
[42] = system: SK-MEL-5
[43] = system: SN12C
[44] = system: SNB-19
[45] = system: SNB-75
[46] = system: SR
[47] = system: SW-620
[48] = system: T47D
[49] = system: U-251
[50] = system: UACC-257
[51] = system: UACC-62
[52] = system: UO-31
[53] = system: HL-60
[54] = system: Hs-578T
[55] = system: Malme-3M
[56] = system: NCI-H522
[57] = system: SF-268
[58] = system: SK-OV-3
[59] = system: TK-10

Q: `O=S(=O)(O)c1cc(Cl)c(O)c2ncc(Cl)cc12` was tested. Which GI50 [1] did it give?
A: Its GI50 is 92 µM (inactive).

Q: And the GI50 [2]?
A: Its GI50 is > 100 µM (inactive).

Q: What about the GI50 [3] of the same molecule?
A: The GI50 was 77.1 µM (inactive).

Q: And the GI50 [4]?
A: The GI50 was 76 µM (inactive).

Q: What about the GI50 [5] of the same molecule?
A: The GI50 was 79.4 µM (inactive).

Q: And the GI50 [6]?
A: The GI50 was > 100 µM (inactive).

Q: And the GI50 [7]?
A: Its GI50 is 24.6 µM (inactive).

Q: What about the GI50 [8] of the same molecule?
A: The GI50 was > 100 µM (inactive).

Q: And the GI50 [9]?
A: The GI50 was > 100 µM (inactive).

Q: And the GI50 [10]?
A: Its GI50 is 69 µM (inactive).

Q: And the GI50 [11]?
A: Its GI50 is > 100 µM (inactive).

Q: And the GI50 [12]?
A: Its GI50 is 36.5 µM (inactive).

Q: And the GI50 [13]?
A: Its GI50 is 41.7 µM.

Q: What about the GI50 [14] of the same molecule?
A: Its GI50 is > 100 µM (inactive).

Q: What about the GI50 [15] of the same molecule?
A: Its GI50 is 87.1 µM (inactive).

Q: What about the GI50 [16] of the same molecule?
A: Its GI50 is 38.5 µM (inactive).

Q: What about the GI50 [17] of the same molecule?
A: The GI50 was 35.4 µM (inactive).

Q: And the GI50 [18]?
A: Its GI50 is 41.6 µM (inactive).

Q: And the GI50 [19]?
A: The GI50 was > 100 µM (inactive).

Q: What about the GI50 [20] of the same molecule?
A: Its GI50 is 31 µM (inactive).

Q: And the GI50 [21]?
A: Its GI50 is 90.8 µM (inactive).

Q: And the GI50 [22]?
A: The GI50 was 51.8 µM (inactive).

Q: What about the GI50 [23] of the same molecule?
A: Its GI50 is > 100 µM (inactive).

Q: What about the GI50 [24] of the same molecule?
A: Its GI50 is > 100 µM (inactive).

Q: And the GI50 [25]?
A: Its GI50 is > 100 µM (inactive).

Q: And the GI50 [26]?
A: Its GI50 is 15.7 µM (inactive).

Q: And the GI50 [27]?
A: The GI50 was 73.1 µM (inactive).

Q: What about the GI50 [28] of the same molecule?
A: The GI50 was 72.4 µM (inactive).

Q: And the GI50 [29]?
A: The GI50 was 55.5 µM (inactive).

Q: And the GI50 [30]?
A: Its GI50 is 32.8 µM (inactive).

Q: And the GI50 [31]?
A: The GI50 was 69.2 µM (inactive).

Q: And the GI50 [32]?
A: The GI50 was 42.7 µM (inactive).

Q: And the GI50 [33]?
A: Its GI50 is > 100 µM (inactive).

Q: What about the GI50 [34] of the same molecule?
A: The GI50 was 37.5 µM (inactive).

Q: What about the GI50 [35] of the same molecule?
A: Its GI50 is > 100 µM (inactive).

Q: And the GI50 [36]?
A: Its GI50 is 45.2 µM (inactive).

Q: And the GI50 [37]?
A: The GI50 was > 100 µM (inactive).

Q: What about the GI50 [38] of the same molecule?
A: Its GI50 is > 100 µM (inactive).

Q: And the GI50 [39]?
A: Its GI50 is 50.4 µM (inactive).

Q: What about the GI50 [40] of the same molecule?
A: The GI50 was > 100 µM (inactive).

Q: And the GI50 [41]?
A: Its GI50 is > 100 µM (inactive).

Q: And the GI50 [42]?
A: Its GI50 is 84.3 µM (inactive).

Q: What about the GI50 [43] of the same molecule?
A: The GI50 was 64 µM (inactive).

Q: And the GI50 [44]?
A: Its GI50 is 84.7 µM (inactive).

Q: What about the GI50 [45] of the same molecule?
A: The GI50 was > 100 µM (inactive).

Q: And the GI50 [46]?
A: Its GI50 is 32.2 µM (inactive).

Q: And the GI50 [47]?
A: The GI50 was 56.8 µM (inactive).

Q: What about the GI50 [48] of the same molecule?
A: Its GI50 is > 100 µM (inactive).

Q: And the GI50 [49]?
A: Its GI50 is > 100 µM (inactive).

Q: And the GI50 [50]?
A: The GI50 was > 100 µM (inactive).

Q: And the GI50 [51]?
A: Its GI50 is 50.1 µM (inactive).

Q: What about the GI50 [52] of the same molecule?
A: Its GI50 is 57 µM (inactive).

Q: Which GI50 [1] does the source give for `Cl/C(=C\C=N\c1ccc(I)cc1)c1ccc2ccccc2c1` here?
A: Its GI50 is 17.6 µM (inactive).

Q: What about the GI50 [2] of the same molecule?
A: Its GI50 is 47.6 µM (inactive).

Q: What about the GI50 [3] of the same molecule?
A: Its GI50 is 33.3 µM (inactive).

Q: What about the GI50 [4] of the same molecule?
A: The GI50 was 10.5 µM (inactive).

Q: What about the GI50 [5] of the same molecule?
A: Its GI50 is 16.9 µM (inactive).

Q: What about the GI50 [6] of the same molecule?
A: Its GI50 is 11.9 µM (inactive).

Q: What about the GI50 [7] of the same molecule?
A: Its GI50 is 7.29 µM (inactive).

Q: What about the GI50 [8] of the same molecule?
A: The GI50 was 16.3 µM (inactive).

Q: What about the GI50 [9] of the same molecule?
A: Its GI50 is 21.4 µM (inactive).

Q: And the GI50 [10]?
A: Its GI50 is 36.2 µM (inactive).

Q: And the GI50 [11]?
A: Its GI50 is 0.0322 µM (active).

Q: And the GI50 [12]?
A: The GI50 was 16.1 µM (inactive).

Q: And the GI50 [13]?
A: Its GI50 is 12.6 µM.

Q: What about the GI50 [53] of the same molecule?
A: Its GI50 is 12.9 µM (inactive).

Q: What about the GI50 [14] of the same molecule?
A: Its GI50 is 17.7 µM (inactive).

Q: And the GI50 [15]?
A: Its GI50 is 41.6 µM (inactive).

Q: And the GI50 [16]?
A: The GI50 was 40.5 µM (inactive).

Q: What about the GI50 [54] of the same molecule?
A: Its GI50 is 28.4 µM (inactive).

Q: And the GI50 [17]?
A: Its GI50 is 17.9 µM (inactive).

Q: What about the GI50 [18] of the same molecule?
A: The GI50 was 6.14 µM (inactive).

Q: And the GI50 [19]?
A: The GI50 was 13.1 µM (inactive).

Q: What about the GI50 [20] of the same molecule?
A: Its GI50 is 8.53 µM (inactive).

Q: What about the GI50 [21] of the same molecule?
A: The GI50 was 14.3 µM (inactive).

Q: What about the GI50 [22] of the same molecule?
A: The GI50 was 23.2 µM (inactive).

Q: And the GI50 [23]?
A: The GI50 was 14.5 µM (inactive).

Q: And the GI50 [24]?
A: Its GI50 is 9.42 µM (inactive).

Q: And the GI50 [26]?
A: Its GI50 is 5.13 µM (inactive).

Q: What about the GI50 [55] of the same molecule?
A: The GI50 was 20.6 µM (inactive).

Q: What about the GI50 [27] of the same molecule?
A: Its GI50 is 20.8 µM (inactive).

Q: What about the GI50 [28] of the same molecule?
A: Its GI50 is 16 µM (inactive).

Q: And the GI50 [29]?
A: Its GI50 is 24.2 µM (inactive).

Q: And the GI50 [56]?
A: The GI50 was 27.2 µM (inactive).

Q: And the GI50 [30]?
A: Its GI50 is 14.9 µM (inactive).

Q: And the GI50 [31]?
A: The GI50 was 15 µM (inactive).

Q: What about the GI50 [32] of the same molecule?
A: The GI50 was 24.5 µM (inactive).

Q: And the GI50 [33]?
A: The GI50 was 34.6 µM (inactive).

Q: And the GI50 [34]?
A: The GI50 was 17.4 µM (inactive).

Q: What about the GI50 [35] of the same molecule?
A: The GI50 was 25.3 µM (inactive).

Q: What about the GI50 [36] of the same molecule?
A: The GI50 was 17.3 µM (inactive).

Q: What about the GI50 [37] of the same molecule?
A: The GI50 was 22.2 µM (inactive).

Q: What about the GI50 [57] of the same molecule?
A: Its GI50 is 20.7 µM (inactive).

Q: And the GI50 [38]?
A: Its GI50 is 19.1 µM (inactive).

Q: And the GI50 [39]?
A: The GI50 was 19.9 µM (inactive).

Q: What about the GI50 [40] of the same molecule?
A: The GI50 was 21.4 µM (inactive).

Q: And the GI50 [41]?
A: The GI50 was 18.9 µM (inactive).

Q: What about the GI50 [42] of the same molecule?
A: Its GI50 is 18 µM (inactive).

Q: And the GI50 [58]?
A: Its GI50 is 22.5 µM (inactive).

Q: And the GI50 [43]?
A: The GI50 was 17.9 µM (inactive).

Q: And the GI50 [44]?
A: The GI50 was 18.3 µM (inactive).

Q: And the GI50 [45]?
A: The GI50 was 28.4 µM (inactive).

Q: What about the GI50 [46] of the same molecule?
A: Its GI50 is 3.91 µM (inactive).

Q: What about the GI50 [47] of the same molecule?
A: The GI50 was 19.1 µM (inactive).

Q: And the GI50 [48]?
A: Its GI50 is 10.4 µM (inactive).

Q: What about the GI50 [59] of the same molecule?
A: The GI50 was 16.4 µM (inactive).

Q: And the GI50 [49]?
A: The GI50 was 16.4 µM (inactive).

Q: And the GI50 [50]?
A: Its GI50 is 15.4 µM (inactive).

Q: And the GI50 [51]?
A: Its GI50 is 8.83 µM (inactive).

Q: What about the GI50 [52] of the same molecule?
A: Its GI50 is 17.5 µM (inactive).
